Source: US12274693B2, “Anti-proprotein convertase subtilisin kexin type 9 (anti-PCSK9) nano-formulation of compounds and methods of using the same” (SHIFA BIOMEDICAL CORPORATION, priority 2018, dated 2025)
Several values for one entry are separate records, joined by “and”; a condition that tells them apart may be missing. Identical values can stand only once. Like-named read-outs stand apart in the source and are kept apart here.

Legend:
[1] = biological target: T1, PCSK9/LDLR interaction (His-tagged PCSK9, recombinant LDLR-AB domain) (Homo sapiens, UniProt Q8NBP7); experiment: In vitro ELISA binding assay (Circulex) for inhibition of the PCSK9/LDLR interaction; details: for IC50 for inhibition of the PCSK9/LDLR interaction, range in words: FIG. 4A
T1 construct: purchased Circulex
T1 sequence (Q8NBP7 153-692): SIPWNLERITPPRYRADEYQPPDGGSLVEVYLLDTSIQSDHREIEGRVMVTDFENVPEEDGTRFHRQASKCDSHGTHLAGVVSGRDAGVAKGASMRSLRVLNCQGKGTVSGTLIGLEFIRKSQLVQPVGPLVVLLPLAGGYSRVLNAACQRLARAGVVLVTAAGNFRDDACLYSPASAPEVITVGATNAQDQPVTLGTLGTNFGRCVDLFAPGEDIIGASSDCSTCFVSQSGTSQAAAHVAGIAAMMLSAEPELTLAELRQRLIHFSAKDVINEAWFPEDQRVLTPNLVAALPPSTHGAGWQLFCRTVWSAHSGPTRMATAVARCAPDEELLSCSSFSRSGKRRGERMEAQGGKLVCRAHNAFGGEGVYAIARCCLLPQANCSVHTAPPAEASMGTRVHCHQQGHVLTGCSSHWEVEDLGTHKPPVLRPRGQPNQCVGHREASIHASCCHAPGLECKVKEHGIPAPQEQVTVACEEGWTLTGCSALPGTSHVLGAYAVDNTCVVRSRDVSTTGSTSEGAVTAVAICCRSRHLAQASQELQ
T1 sequence (Q8NBP7 31-152 partner limits assumed): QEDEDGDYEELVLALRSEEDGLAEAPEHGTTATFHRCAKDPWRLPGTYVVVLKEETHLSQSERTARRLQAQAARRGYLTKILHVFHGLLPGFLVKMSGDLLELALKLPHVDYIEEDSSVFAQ
Procedure: FIG. 4A provides a graph of the effect of SBC-115,418, SBC-115,433, SBC-115,448, and SBC-115,462 on the PCSK9/LDLR interaction. An in vitro ELISA assay kit was utilized (Circulex). For screening inhibitors of the PCSK9/LDLR interaction, different concentrations (0.01 nM-100 μM) of selected compounds were incubated with His-tagged PCSK9 and then added to wells that were pre-coated with recombinant LDLR-AB domain. After incubation, the plate was washed and the amount of recombinant His-tagged PCSK9 was measured using the biotinylated anti-His-tag and horseradish peroxidase conjugated Streptavidin and quantitated using a BioTek Synergy™ 2 plate reader. The effect of each compound on the PCSK9 binding to the recombinant LDLR-AB domain was calculated.
FIG. 4B provides a graph of the effect of SBC-115,418 on the PCSK9/LDLR interaction under increased solubilization conditions (10% DMSO) (418s). An in vitro ELISA assay (Circulex) was utilized. Different concentrations ([…]-100 μM) of SBC-115,418 in DMSO were incubated with His-tagged PCSK9 and then added to wells that were pre-coated with recombinant LDLR-AB domain as described in FIG. 4A.
(§1) Testing of SBC-115,418 and analogs was performed in a binding assay to determine their ability to inhibit the PCSK9/LDLR interaction. SBC-115,418 inhibited the PCSK9/LDLR interaction with an IC50 in the sub-micro-molar range. Experimental details are provided hereinabove and in WO 2017/222953. […] Given the lipophilicity of lead compound SBC-115,418, a solubility study was undertaken to look at its effects on binding (FIG. 4B). An in vitro ELISA binding assay was performed at different concentrations (0.01 μM-100 μM) of SBC-115,418 under different solubilization conditions.

HepG2 cells = experiment: Uptake of fluorescent Dil-LDL in HepG2 cells; type: cell-based; details: 10 μM
Text: FIG. 5 provides a graph of the effect of SBC-115,418, SBC-115,433, SBC-115,448, and SBC-115,462 on the uptake of fluorescent Dil-LDL in HepG2 Cells. The compounds were validated for their ability to increase uptake of Fluorescent Dil-LDL in HepG2 cells.

[2] = Lipophilicity and solubility of the compounds; type: physicochemical
Procedure: [formula] The size distribution of the nanoparticles in aqueous dispersions was determined using a Malvern zeta sizer (Malvern Instrumentation Co, Westborough, MA). 50 mg of the lyophilized nanoparticles were re-suspended in 2 mL of water. This nanoparticles solution was placed into a 3 mL, 4-sided, clear plastic cuvette, and measured directly. Shown are the HPLC chromatograms of SBC-115,418 used to construct the standard curve at different concentrations. Calibrator series of SBC-115,418 were prepared in DMSO by a 2-fold series dilution including 3.9, 7.8, 15.6, 31.5, 62.5, 125, and 250 μg/mL (left).
as §1

PCSK9 = experiment: Test for secreted PCSK9 (synthesis, processing and secretion); type: cell-based; details: in the cells or into the media
Text: Experimental details are provided hereinabove and in WO 2017/222953.

LDLR = experiment: Cell-based assay for LDLR upregulation; details: compared to cells treated with same volume of DMSO
[3] = ELISA, read-out: in vitro inhibition of the PCSK9/LDLR interaction (IC50)

SMILES	IC50 for inhibition of the PCSK9/LDLR interaction, range in words ([1]; ELISA)	IC50 [1, 3]	IC50 ([1]; increased solubilization conditions (10% DMSO), FIG. 4B, read-out: IC50 of in vitro binding under improved solubility conditions)	Fluorescent Dil-LDL uptake (HepG2 cells)	solubility ([2]; 80% acetonitrile, organic solvent or mixture)	effect on PCSK9 synthesis, processing and secretion (PCSK9)	level of LDLR versus DMSO control (LDLR)	logP [2]	solubility relative to SBC-115,418 [2]
COc1ccc2oc(C(=O)Nc3ccc(C(=O)Nc4ccc(-c5nc6ccccc6o5)cc4)cc3)c(C)c2c1 [SBC-115,418]	sub-micro-molar	< 5 µM	0.05 µM	significant increase	< 100 µg/mL	no significant effect	significant upregulation	–	–
O=C(Nc1ccc(-c2ncco2)cc1)c1ccc(NC(=O)c2cc3ccccc3o2)cc1 [SBC-115,433]	sub-micro-molar	< 5 µM	–	increase	–	no significant effect	significant upregulation	–	–
O=C(Nc1ccc(C(=O)Nc2ccc(-c3ncco3)cc2)c(F)c1)c1cc2ccccc2o1 [SBC-115,448]	low micro-molar	< 5 µM	–	increase	–	no significant effect	significant upregulation	–	–
COc1ccc2oc(C(=O)Nc3ccc(C(=O)Nc4ccc(-c5ncco5)cc4)cc3)c(C)c2c1 [SBC-115,462]	low micro-molar	< 5 µM	–	significant increase	–	no significant effect	significant upregulation	–	–
COc1ccc2oc(C(=O)Nc3ccc(C(=O)Nc4ccc(-c5nc6ccccc6[nH]5)cc4)cc3)c(C)c2c1 [SBC-115,477]	sub-micro-molar	< 5 µM and 0.19 µM	–	–	–	no significant effect	upregulation	4.5	increased solubility
